Test results published in patent US7892492B2, “Flow-through apparatus for microscopic investigation of dissolution of pharmaceutical solids” (University of Connecticut, priority 2006, dated 2011).

Tests used:
Assay type in all cases: physicochemical
[1] = Dissolution in flow-through apparatus (flow cell), 10−4N NaOH; conditions: for Dissolution Rate: 10−4N NaOH, room temperature
Protocol: In order to test an apparatus associated with the present disclosure against a rotating disk apparatus, the dissolution rate of Triamterene free base was determined in dilute NaOH. The dissolution media was chosen to be 10−4N NaOH, since at alkaline pH, the Triamterene free base is not ionized. This condition makes theoretical comparisons of flux easier since it is not necessary to account for multiple species (ionized and unionized species) and Levich's mathematical solution for dissolution from a rotating disk transport is valid. Dissolution rate was also studied in an exemplary flow-through apparatus associated with the present disclosure. The dissolution medium (10−4N NaOH) was run continuously at 0.5, 1.5, 7.0, 20 mL/min. Triamterene free base was compressed into the insert by a mini-vise. Since a pressure reading is not possible on this vise, the mass of the drug in the insert was recorded and the porosity was calculated by using the dimensions of the insert, thickness of the drug compact and true density of the Triamterene free base as measured by pycnometry. Porosity of 10% or less was considered acceptable. Triamterene was detected via fluorescence with excitation at 370 nm and emission at 432 nm. The rotating disk results are shown in FIG. 29 for each rotation speed. As expected, an increase in rotation speed leads to an increase in dissolution rate. The dissolution rate for the entire experiment is represented by the slope of this line. Because this is the Triamterene free base dissolving in alkaline conditions, it is not expected to undergo a conversion, thus a constant dissolution rate vs. time curve is expected. However, interesting results can be seen in FIG. 30 showing dissolution rate vs. time data. […] The data from FIGS. 32 and 33 were used to estimate the dissolution rate at each volumetric flow rate for FIG. 34.

[2] = Flow-through apparatus dissolution in HCl with stereomicroscope imaging; conditions: flow cell
Protocol: A flow-through apparatus associated with the present disclosure was tested using a model compound. Triamterene free base was chosen as the model compound as this is readily available and there is literature available on its various salt forms. An advantage of an apparatus associated with the present disclosure is that the user is able to observe the solid during dissolution. The following experimental results are preliminary data for a flow-through apparatus experiment (before the compression step was controlled). Approximately 20 mg of a sample drug was compressed in an insert for dissolution. Flow-through experiments were performed using 0.1N or 0.001N HCl as the dissolution medium pumped through a dissolution channel at 5 ml/min and 25 ml/min. Triamterene concentration in the effluent was measured by UV analysis at 370 nm. […] With the flow cell mounted in a jig so that it is tilted slightly, it is possible to capture images that show the face of the drug compact that is exposed to the fluid as well as the “control” dry surface face adjacent to the glass plate. Flow is from left to right in the following figures of Triamterene Free Base Dissolution in 0.1 N HCl at 25 ml/min: FIG. 23 at t=0; FIG. 24 at t=5 min; FIG. 25 at t=10 min; FIG. 26 at t=15 min; FIG. 27 at t=20 min; FIG. 28 at 25 minutes.

[3] = Rotating disk dissolution in HCl
From the text: Dissolution data are often collected in terms of amount dissolved curve vs. time. This is the case for rotating disk experiments due to the nature of the apparatus, i.e., batch operation. In rotating disk experiments, a change in solid form (such as salt form, polymorph form, amorphous to crystalline form) is indicated by a change in slope in a cumulative dissolution curve. A change of slope signifies a change in dissolution rate. […] In FIG. 20, the change in slope occurs at approximately 45 minutes, although it is difficult to determine an exact time due to some curvature in the plot.
These phenomena can be better understood by plotting a dissolution rate vs. time curve. For the rotating disk, data are still collected in a cumulative manner; however, further data treatment makes a change in slope easier to recognize. From a cumulative amount dissolved curve the slope between each set of adjacent points is taken and plotted against the midpoint of time. Using this method, it is easier to point out the time when the dissolution rate changes and determine the terminal dissolution rate. The resultant plot is a dissolution rate vs. time curve.

[4] = Rotating disk (Wood's die) dissolution, 10−4N NaOH; conditions: for Dissolution Rate: rotating disk, 900 ml 10−4N NaOH, room temperature
Protocol: In order to test an apparatus associated with the present disclosure against a rotating disk apparatus, the dissolution rate of Triamterene free base was determined in dilute NaOH. The dissolution media was chosen to be 10−4N NaOH, since at alkaline pH, the Triamterene free base is not ionized. This condition makes theoretical comparisons of flux easier since it is not necessary to account for multiple species (ionized and unionized species) and Levich's mathematical solution for dissolution from a rotating disk transport is valid. Rotating disk dissolution was run in a standard dissolution apparatus at 25, 80 and 200 rpm. The dissolution medium was 900 ml of 10−4 N NaOH at room temperature (since the flow cell has no temperature control at this time). The Wood's die apparatus has an exposed drug surface area of 0.5 cm^2. Approximately 125 mg of Triamterene free base was compressed into the die using a Carver Press. The compression conditions were 5000 lbs of force for 30 seconds. Triamterene was detected via fluorescence with excitation at 370 nm and emission at 432 nm. The rotating disk results are shown in FIG. 29 for each rotation speed. As expected, an increase in rotation speed leads to an increase in dissolution rate. The dissolution rate for the entire experiment is represented by the slope of this line. Because this is the Triamterene free base dissolving in alkaline conditions, it is not expected to undergo a conversion, thus a constant dissolution rate vs. time curve is expected. However, interesting results can be seen in FIG. 30 showing dissolution rate vs. time data. […] The data from FIGS. 32 and 33 were used to estimate the dissolution rate at each volumetric flow rate for FIG. 34.

Row | Course of dissolution rate with time ([1]; 0.5-20 mL/min, 10−4N NaOH (FIG. 33)) | Dissolution Rate ([1]; flow rate 0.5 ml/min) [ug/cm^2min] | Dissolution Rate ([1]; flow rate 1.5 ml/min) [ug/cm^2min] | Dissolution Rate ([1]; flow rate 7.0 ml/min) [ug/cm^2min] | Dissolution Rate ([1]; flow rate 20 ml/min) [ug/cm^2min] | Observable changes of the solid in stereomicroscope images ([2]; 0.001 HCl, 5 mL/min) | Time after which the dissolution rate is relatively constant ([2]; 0.001 HCl, 5 mL/min (FIG. 22)) [min] | Time until which the new solid grows before it is washed away with the fluid ([2]; 0.1N HCl, 25 ml/min) [min] | Time of change in slope of cumulative amount dissolved vs. time curve ([3]; rotating disk, 0.001N HCl, 50 rpm, preliminary data (FIG. 20)) | Dissolution Rate ([4]; 25 rpm) [ug/cm^2min] | Dissolution Rate ([4]; 80 rpm) [ug/cm^2min] | Dissolution Rate ([4]; 200 rpm) [ug/cm^2min] | Comparison of dissolution rate between HCl concentrations ([3]; rotating disk, 0.1, 0.01 or 0.001N HCl) | Rank order of dissolution rate with pH ([3]; rotating disk, chloride ion concentration normalized to 0.1N HCl) [N>0.01N>0.001N HCl] | Compound | Salt transformation observed during dissolution ([2]; 0.1N HCl, 25 ml/min) | Observation of drug compact during dissolution ([2]; 0.1N HCl, 25 ml/min, after five minutes (FIG. 24)) | Course of dissolution rate with time ([4]; rotating disk, 25, 80 and 200 rpm, 10−4N NaOH (FIG. 30))
1 | decrease of dissolution rate with time | 1.1 | 1.5 | 2.7 | 4.7 | did not reveal any observable changes | 25 | 15 | approximately 45 minutes | 0.8 | 1.5 | 2.3 | – | – | Nc1nc(N)c2nc(-c3ccccc3)c(N)nc2n1 [Triamterene free base, Triamterene] | significant hydrochloride salt growth on the drug surface | nucleation and significant crystal growth has occurred | initial decrease in the dissolution rate with time
2 | – | – | – | – | – | – | – | – | – | – | – | – | highest dissolution rate in 0.01N HCl | 0.1 | Triamterene citrate | – | – | –
